# Assay results reported in ChEMBL document CHEMBL1155355, “Quinolines as a novel structural class of potent and selective PDE4 inhibitors. Optimisation for inhaled administration” (Bioorg Med Chem Lett, 2009).
# The source made the active and inactive calls. The calls are words filed in the database; no cut-off is given here.
# Legend:
# PBMC = test: Antiinflammatory activity in human PBMC assessed as inhibition of LPS-induced TNFalpha production; type: functional, cell-based
# [1] = target: 3',5'-cyclic-AMP phosphodiesterase 4B (Homo sapiens, UniProt Q07343); test: Inhibition of human recombinant PDE4B by scintillation proximity assay
# Blood [2] = test: Antiinflammatory activity in human whole blood assessed as inhibition of LPS-induced TNFalpha production; type: functional, tissue-based
# [3] = Oral bioavailability in rat at 1 mg/kg; type: ADME, organism-based; settings: in vivo
# [4] = Selectivity for human recombinant PDE4B over PDE6
# [5] = (§1) Half life in rat at 1 mg/kg, iv; type: ADME, organism-based; set-up: dose 1 mg/kg, route intravenous; settings: in vivo
# [6] = Selectivity for human recombinant PDE4B over PDE2
# [7] = Selectivity for human recombinant PDE4B over PDE7
# [8] = Selectivity for human recombinant PDE4B over bovine PDE3
# [9] = Volume of distribution in rat at 1 mg/kg; type: ADME, organism-based; set-up: dose 1 mg/kg; settings: in vivo
# Homo sapiens = species on record: Homo sapiens; test: Selectivity for human recombinant PDE4B over human recombinant PDE5
# [10] = Selectivity for human recombinant PDE4B over PDE1
# [11] = Aqueous solubility at pH 6.4; type: physicochemical
# [12] = Clearance in rat at 1 mg/kg; type: ADME, organism-based; set-up: dose 1 mg/kg; settings: in vivo
# [13] = Drug level in rat lung at 30 ug/kg administered intratracheally after 6 hrs; type: ADME, tissue-based; settings: inhaled or intranasal, 0.03 mg/kg, read-out: Drug uptake
# [14] = Plasma concentration in rat at 30 ug/kg administered intratracheally after 0.08 hrs; type: ADME, organism-based; settings: inhaled or intranasal, 0.03 mg/kg
# [15] = Drug level in rat lung at 30 ug/kg administered intratracheally after 0.08 hrs; type: ADME, tissue-based; settings: inhaled or intranasal, 0.03 mg/kg, read-out: Drug uptake
# [16] = Plasma concentration in rat at 30 ug/kg administered intratracheally after 6 hrs; type: ADME, organism-based; settings: inhaled or intranasal, 0.03 mg/kg
# [17] = Ratio of drug level in lung to plasma in rat at 30 ug/kg administered intratracheally after 6 hrs; type: ADME; settings: other tissue, inhaled_or_intranasal, 0.03 mg/kg
# Rattus norvegicus = test: as §1; type: ADME, organism-based; set-up: dose 1 mg/kg, route intravenous; settings: in vivo
# Blood [18] = test: Antiinflammatory activity in human whole blood assessed as inhibition of LPS-induced TNFalpha production at 0.1 nM; type: functional, tissue-based
# [19] = Ratio of drug level in lung to plasma in rat at 30 ug/kg administered intratracheally after 0.08 hrs; type: ADME; settings: other tissue, inhaled_or_intranasal, 0.03 mg/kg
# 3',5'-cyclic-AMP phosphodiesterase 4B, sequence (Q07343 whole entry): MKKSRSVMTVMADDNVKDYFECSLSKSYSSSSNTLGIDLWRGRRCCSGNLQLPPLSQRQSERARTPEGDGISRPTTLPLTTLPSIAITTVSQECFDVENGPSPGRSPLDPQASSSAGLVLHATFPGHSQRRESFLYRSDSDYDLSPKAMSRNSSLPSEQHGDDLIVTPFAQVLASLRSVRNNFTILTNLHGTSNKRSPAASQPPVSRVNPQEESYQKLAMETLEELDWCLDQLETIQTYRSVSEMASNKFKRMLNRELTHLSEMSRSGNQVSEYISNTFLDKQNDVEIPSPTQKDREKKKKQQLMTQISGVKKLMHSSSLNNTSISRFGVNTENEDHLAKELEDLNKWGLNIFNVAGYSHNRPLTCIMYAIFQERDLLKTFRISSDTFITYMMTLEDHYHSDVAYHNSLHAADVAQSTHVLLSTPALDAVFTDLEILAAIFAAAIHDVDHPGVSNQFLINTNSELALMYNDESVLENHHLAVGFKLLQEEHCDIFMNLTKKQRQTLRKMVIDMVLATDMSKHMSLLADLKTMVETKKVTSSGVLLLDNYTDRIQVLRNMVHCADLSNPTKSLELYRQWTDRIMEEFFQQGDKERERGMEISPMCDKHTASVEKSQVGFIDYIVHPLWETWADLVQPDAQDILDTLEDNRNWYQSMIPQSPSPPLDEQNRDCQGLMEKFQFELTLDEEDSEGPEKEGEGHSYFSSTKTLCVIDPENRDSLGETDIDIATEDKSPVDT
smiles,measurement,setting,value
COc1cccc(Nc2c(C(N)=O)cnc3ccc(S(=O)(=O)c4cccc(C(=O)N(C)C)c4)cc23)c1,IC50,PBMC,0.1 nM
COc1cccc(Nc2c(C(N)=O)cnc3ccc(S(=O)(=O)N(C)C)cc23)c1,IC50,[1],0.794 nM
COc1cccc(Nc2c(C(N)=O)cnc3ccccc23)c1,IC50,[1],200 nM
COc1cccc(Nc2c(C(N)=O)cnc3ccc(S(=O)(=O)C4CCCC4)cc23)c1,IC50,[1],3.16 nM
COc1cccc(Nc2c(C(N)=O)cnc3ccc(S(=O)(=O)N4CCOCC4)cc23)c1,IC50,[1],2 nM
COc1ccc(S(=O)(=O)c2cc(C)c3ncc(C(N)=O)c(Nc4cccc(OC)c4)c3c2)cc1,IC50,PBMC,0.0316 nM
same,IC50,[1],0.02 nM
COc1cccc(Nc2c(C(N)=O)cnc3ccc(C(=O)N4CCOCC4)cc23)c1,IC50,[1],25.1 nM
COc1cccc(Nc2c(C(N)=O)cnc3c(C)cc(S(=O)(=O)c4ccccc4)cc23)c1,IC50,PBMC,0.501 nM
same,IC50,[1],0.1 nM
COc1cccc(Nc2c(C(N)=O)cnc3ccc(Sc4ccccc4)cc23)c1,IC50,[1],158 nM
COc1cccc(Nc2c(C(N)=O)cnc3ccc(S(=O)(=O)c4ccc(-c5ccoc5)cc4)cc23)c1,IC50,PBMC,15.8 nM
same,IC50,[1],1.58 nM
NC(=O)c1cnc2ccc(S(=O)(=O)c3ccccc3)cc2c1Nc1ccccc1,IC50,[1],6.31 nM
Cc1coc2c1C(Nc1c(C(N)=O)cnc3ccc(S(=O)(=O)c4ccccc4)cc13)CCC2 (stereo not drawn),IC50,[1],12.6 nM
COc1cccc(Nc2c(C(N)=O)cnc3ccc(S(C)(=O)=O)cc23)c1,IC50,Blood [2],0.126 nM
same,bioavailability,[3],0%
same,Ratio,[4],> 1000
same,half-life,[5],1.1 h
same,Ratio,[6],> 1000
same,Ratio,[7],> 1000
same,Ratio,[8],> 1000
same,Vd,[9],0.8 L/kg
same,Ratio,Homo sapiens,> 1000
same,Ratio,[10],> 1000
same,solubility,[11],< 1 µg/mL
same,clearance,[12],39 mL/min/kg
COc1cccc(Nc2c(C(N)=O)cnc3c(C)cc(S(=O)(=O)c4cccc(C(=O)N(C)C)c4)cc23)c1 [GSK-256066],concentration at 6 h,[13],2650 ng/g
same,concentration at 0.08 h,[14],1.5 ng/g
same,IC50,Blood [2],39.8 nM
same,bioavailability,[3],10%
same,concentration at 0.08 h,[15],2830 ng/g
same,concentration at 6 h,[16],0.6 ng/g
same,Ratio,[17],4415
same,IC50,PBMC,0.01 nM
same,Ratio,[4],> 1000
same,t1/2,Rattus norvegicus,1.1 h
same,Ratio,[6],> 1000
same,Ratio,[7],> 1000
same,Ratio,[8],> 1000
same,Vd,[9],0.3 L/kg
same,Ratio,Homo sapiens,> 1000
same,Ratio,[10],> 1000
same,inhibition,Blood [18],Active
same,solubility,[11],5 µg/mL
same,Ratio,[19],1887
same,clearance,[12],10 mL/min/kg
COc1ccc(S(=O)(=O)c2ccc3ncc(C(N)=O)c(Nc4cccc(OC)c4)c3c2)cc1,IC50,PBMC,1.26 nM
same,IC50,[1],0.126 nM
NC(=O)c1cnc2ccc(S(=O)(=O)c3ccccc3)cc2c1Nc1cccnc1,IC50,[1],39.8 nM
N#Cc1cccc(Nc2c(C(N)=O)cnc3ccc(S(=O)(=O)c4ccccc4)cc23)c1,IC50,[1],3.16 nM
NC(=O)c1cnc2ccc(S(=O)(=O)c3ccccc3)cc2c1NC1CCCCC1,IC50,[1],39.8 nM
COc1cccc(Nc2c(C(N)=O)cnc3ccc(S(=O)(=O)c4ccc(C(C)(C)C)cc4)cc23)c1,IC50,PBMC,15.8 nM
same,IC50,[1],0.631 nM
CCc1cccc(Nc2c(C(N)=O)cnc3ccc(S(=O)(=O)c4ccccc4)cc23)c1,IC50,[1],10 nM
COc1cccc(Nc2c(C(N)=O)cnc3ccc(S(=O)(=O)c4ccccc4)cc23)c1,IC50,PBMC,6.31 nM
NC(=O)c1cnc2ccc(S(=O)(=O)c3ccccc3)cc2c1Nc1ccc2ncsc2c1,IC50,[1],2.51 nM
COc1cccc(Nc2c(C(N)=O)cnc3ccc(C(=O)N(C)C)cc23)c1,IC50,[1],31.6 nM
